Test results reported in patent US8580478B2, “Latent acids and their use” (BASF SE, priority 2010, dated 2013).

Assay: Solubility of photoacid generator compounds in cyclohexanone
Assay type: physicochemical
Conditions: cyclohexanone as solvent, with stirring; lower amount = better solubility
Procedure: In order to determine the solubility of photoacid generator compounds of the present invention, to a weighed amount of the compound to be tested is added cyclohexanone as the solvent with stirring. Determined is the amount of cyclohexanone needed to completely dissolve the photoacid generator compound. […]

CC12CCC(C(=O)OCC(F)C(F)(F)S(=O)(=O)O)(OC1=O)C2(C)C (stereo not shown) [Example 57]
Solvent needed to completely dissolve 10 g of the compound: 24 mL
